What all share (assay type): in vivo
Assay [1] relates to Cabbage Looper (Trichoplusia ni, TRIPNI). The assay can be described thus: Bioassays on Cabbage Looper (CL), 128-well diet tray assay. Particulars: Trichoplusia ni. The method in brief:
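Diet tray, 2nd instar, 1–5 larvae/well; 50 μg/cm^2 compound surface-applied (acetone:water 90:10), dried; 8 wells/treatment; 25° C, 14:10 L:D, 5–7 d; % mortality, mean of 8 wells.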

Assay [2] deals with Yellow Fever Mosquito (Aedes aegypti, AEDSAE). The note with it: for YFM rating: Table ABC / ABC-DP rating. The procedure, abridged: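 Rating-scale grades reflect larval mortality scored per well after 3 days at room temperature under non-evaporative lids. Larvae (~1 day old, hatched overnight in liver-powder water) were added to six daughter plates per compound, prepared from a 4000 ppm DMSO stock diluted in 90:10 water/acetone.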

In assay [3] the test system is Beet Armyworm (Spodoptera exigua, LAPHEG). Nature of the assay: Bioassays on Beet Armyworm (BAW), 128-well diet tray assay. Particulars: Spodoptera exigua. The method in brief: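 Test molecule was dissolved in 90:10 acetone-water and applied at 50 μg/cm^2 onto artificial diet in eight wells, then dried. Second instar larvae, one to five per well, were added, and trays were kept vented at 25° C. with a 14:10 photoperiod for five to seven days before mortality was recorded.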

[4] abbreviates: Cabbage Looper, rating class, read-out: CL.
Setting [5] is: Yellow Fever Mosquito, rating class.
Where [6] appears, read: Beet Armyworm, rating class, read-out: BAW.
Where [7] appears, read: Table ABC: Biological Results, species CL, read-out: CL.
The mark [8] stands for this setting: Table ABC: Biological Results, species YFM.
Where [9] appears, read: Table ABC: Biological Results, species BAW, read-out: BAW.
The mark [10] stands for this setting: Cabbage Looper, Table ABC / ABC-DP rating, read-out: CL rating.
The mark [11] stands for this setting: Beet Armyworm, Table ABC / ABC-DP rating, read-out: BAW rating.

Where two headings read alike, the source gives them in different places.

For `CO[C@@H](C)C(=O)Nc1c(F)ccc(NC(=O)c2cc(NC(=O)[C@H]3[C@H](c4ccc(F)c(C(F)(F)F)c4)C3(Cl)Cl)ccc2Cl)c1F` [F1720, 2-Chloro-5-((1R,3R)-2,2-dichloro-3-(4-fluoro-3-(trifluoromethyl)phenyl)cyclopropane-1-carboxamido)-N-(2,4-difluoro-3-((S)-2-methoxypropanamido)phenyl)benzamide], the pest or weed control at 50 µg/cm2 in assay [1] (setting [4]) and in assay [3] (setting [6]) was 50 to 100% each time. In addition, the YFM entry in assay [2] (setting [5]) was “A (80–100)”.

As for `Nc1c(F)ccc(NC(=O)c2cc(NC(=O)[C@H]3[C@H](c4ccc(F)cc4)C3(Cl)Cl)ccc2Cl)c1F` (relative stereo) [F1592, trans-N-(3-Amino-2,4-difluorophenyl)-2-chloro-5-(2,2-dichloro-3-(4-fluorophenyl)cyclopropane-1-carboxamido)benzamide], the pest or weed control at 50 µg/cm2 in assay [1] (setting [4]) and in assay [3] (setting [6]) was 50 to 100% in each case. The YFM result in assay [2] (setting [5]) was “A (80–100)”.

In the case of `Cc1c(F)cc(NC(=O)[C@H]2[C@H](c3ccc(F)c(Cl)c3)C2(Cl)Cl)cc1C(=O)Nc1ccc(F)cc1` (relative stereo) [F1278, trans-5-(2,2-Dichloro-3-(3-chloro-4-fluorophenyl)cyclopropane-1-carboxamido)-3-fluoro-N-(4-fluorophenyl)-2-methylbenzamide], the pest or weed control at 50 µg/cm2 in assay [1] (setting [7]) and in assay [3] (setting [9]) was 50 to 100% throughout. Moreover, the YFM entry in assay [2] (setting [8]) is given as “A (80–100)”.

As to `CCOC(=O)NNC(=O)c1cc(NC(=O)[C@H]2[C@H](c3cc(Cl)cc(Cl)c3)C2(Cl)Cl)ccc1Cl` (relative stereo) [F2542, trans-ethyl 2-(2-chloro-5-(2,2-dichloro-3-(3,5-dichlorophenyl)cyclopropane-1-carboxamido)benzoyl)hydrazine-1-carboxylate], the pest or weed control at 50 µg/cm2 in assay [1] (setting [10]) and in assay [3] (setting [11]) was 50 to 100% in each case. For the same compound, the YFM rating entry in assay [2] (Yellow Fever Mosquito) is “B (More than 0 – Less than 80)”.

As to `Nc1c(F)ccc(NC(=O)c2cc(NC(=O)[C@H]3[C@H](c4cc(F)c(F)c(Br)c4)C3(Cl)Cl)ccc2Cl)c1F` (relative stereo) [F1044, trans-N-(3-Amino-2,4-difluorophenyl)-5-(3-(3-bromo-4,5-difluorophenyl)-2,2-dichlorocyclopropane-1-carboxamido)-2-chlorobenzamide], the pest or weed control at 50 µg/cm2 in assay [1] (setting [7]) and in assay [3] (setting [9]) was 50 to 100% in each case. Besides, in assay [2] (setting [8]), the YFM result is recorded as “A (80–100)”.

As for `C#CC(C)C(=O)N(CC)c1c(F)ccc(NC(=O)c2cc(NC(=O)[C@H]3[C@H](c4ccc(F)c(C(F)(F)F)c4)C3(Cl)Cl)ccc2Cl)c1F` (stereo partly drawn) [F1764], the pest or weed control at 50 µg/cm2 in assay [1] (setting [4]) and in assay [3] (setting [6]) was 50 to 100% in each case. For the same compound, in assay [2] (setting [5]), the YFM result is “A (80–100)”.

As to `C=CCC(=O)Nc1c(F)ccc(NC(=O)c2cc(NC(=O)[C@H]3[C@H](c4ccc(F)c(Cl)c4)C3(Cl)Cl)ccc2Cl)c1F` [F1876, N-(3-(But-3-enamido)-2,4-difluorophenyl)-2-chloro-5-((1R,3R)-2,2-dichloro-3-(3-chloro-4-fluorophenyl)cyclopropane-1-carboxamido)benzamide], the pest or weed control at 50 µg/cm2 in assay [1] (setting [10]) and in assay [3] (setting [11]) was 50 to 100% throughout. In addition, the YFM rating entry in assay [2] (Yellow Fever Mosquito) is “A (80–100)”.

As for `CCOC(C)C(=O)Nc1c(F)ccc(NC(=O)c2cc(NC(=O)[C@H]3[C@H](c4ccc(Cl)c(Cl)c4)C3(Cl)Cl)ccc2Cl)c1F` (stereo partly drawn) [F1604, 2-Chloro-5-((1R,3R)-2,2-dichloro-3-(3,4-dichlorophenyl)cyclopropane-1-carboxamido)-N-(3-(2-ethoxypropanamido)-2,4-difluorophenyl)benzamide], the pest or weed control at 50 µg/cm2 in assay [1] (setting [4]) and in assay [3] (setting [6]) was 50 to 100% throughout. Further, the YFM result in assay [2] (setting [5]) is given as “A (80–100)”.

As for `CCN(C(=O)C(F)F)c1c(F)ccc(NC(=O)c2cc(NC(=O)[C@H]3[C@H](c4ccc(F)c(C(F)(F)F)c4)C3(Cl)Cl)ccc2Cl)c1F` [F1452, 2-Chloro-5-((1R,3R)-2,2-dichloro-3-(4-fluoro-3-(trifluoromethyl)phenyl)cyclopropane-1-carboxamido)-N-(3-(N-ethyl-2,2-difluoroacetamido)-2,4-difluorophenyl)benzamide], the pest or weed control at 50 µg/cm2 in assay [1] (setting [4]) and in assay [3] (setting [6]) was 50 to 100% in each case. Also, the YFM entry in assay [2] (setting [5]) is given as “A (80–100)”.

Turning to `CC(=O)Nc1c(F)cc(F)c(NC(=O)c2cc(NC(=O)[C@H]3[C@H](c4ccc(Cl)c(Cl)c4)C3(Cl)Cl)ccc2Cl)c1F` [F1629, N-(3-Acetamido-2,4,6-trifluorophenyl)-2-chloro-5-((1R,3R)-2,2-dichloro-3-(3,4-dichlorophenyl)cyclopropane-1-carboxamido)benzamide], the pest or weed control at 50 µg/cm2 in assay [1] (setting [4]) and in assay [3] (setting [6]) was 50 to 100% in each case. Further, the YFM entry in assay [2] (setting [5]) is listed as “B (More than 0 – Less than 80)”.

Take `O=C(NCC(F)(F)C(F)(F)F)c1cc(NC(=O)[C@H]2[C@H](c3ccc(F)c(C(F)(F)F)c3)C2(Cl)Cl)c(F)cc1Cl` [F2085, 2-Chloro-5-((1R,3R)-2,2-dichloro-3-(4-fluoro-3-(trifluoromethyl)phenyl)cyclopropane-1-carboxamido)-4-fluoro-N-(2,2,3,3,3-pentafluoropropyl)benzamide]: the pest or weed control at 50 µg/cm2 in assay [1] (setting [10]) and in assay [3] (setting [11]) was 50 to 100% throughout. The YFM rating result in assay [2] (Yellow Fever Mosquito) was “A (80–100)”.

On to `O=C(Nc1ccc(F)c(NC(=O)C2CCOC2)c1F)c1cc(NC(=O)[C@H]2[C@H](c3ccc(F)c(C(F)(F)F)c3)C2(Cl)Cl)ccc1Cl` (stereo partly drawn) [F1480, N-(3-(2-Chloro-5-((1R,3R)-2,2-dichloro-3-(4-fluoro-3-(trifluoromethyl)phenyl)cyclopropane-1-carboxamido)benzamido)-2,6-difluorophenyl)tetrahydrofuran-3-carboxamide], for which the pest or weed control at 50 µg/cm2 in assay [1] (setting [4]) and in assay [3] (setting [6]) was 50 to 100% in each case. In addition, in assay [2] (setting [5]), the YFM entry is “A (80–100)”.

In the case of `O=C(Nc1ccc(F)cc1F)c1cc(NC(=O)[C@H]2[C@@H](c3ccc(F)c(Cl)c3F)C2(Cl)Cl)ccc1Cl` (relative stereo) [F1033, cis-2-Chloro-5-(2,2-dichloro-3-(3-chloro-2,4-difluorophenyl)cyclopropane-1-carboxamido)-N-(2,4-difluorophenyl)benzamide], the pest or weed control at 50 µg/cm2 in assay [1] (setting [7]) and in assay [3] (setting [9]) was 50 to 100% in each case. The YFM entry in assay [2] (setting [8]) is “A (80–100)”.

Turning to `Cc1cc([C@H]2[C@H](C(=O)Nc3ccc(Cl)c(C(=O)NCC(F)(F)F)c3)C2(Cl)Cl)cc(C(F)(F)F)c1F` (relative stereo) [F2014, trans-2-Chloro-5-(2,2-dichloro-3-(4-fluoro-3-methyl-5-(trifluoromethyl)phenyl)-cyclopropane-1-carboxamido)-N-(2,2,2-trifluoroethyl)benzamide], the pest or weed control at 50 µg/cm2 in assay [1] (setting [10]) and in assay [3] (setting [11]) was 50 to 100% each time. Besides, the YFM rating entry in assay [2] (Yellow Fever Mosquito) is reported as “A (80–100)”.

For the compound `Cc1cc(NC(=O)[C@H]2[C@H](c3ccc(F)c(Cl)c3)C2(Cl)Cl)cc(C(=O)NCCCCl)c1F` (relative stereo) [F2032, trans-N-(3-Chloropropyl)-5-(2,2-dichloro-3-(3-chloro-4-fluorophenyl)-cyclopropane-1-carboxamido)-2-fluoro-3-methylbenzamide], the pest or weed control at 50 µg/cm2 in assay [1] (setting [10]) and in assay [3] (setting [11]) was 50 to 100% each time. The YFM rating result in assay [2] (Yellow Fever Mosquito) was “A (80–100)”.

In the case of `Cc1c(Cl)cc(NC(=O)[C@H]2[C@H](c3ccc(F)c(Cl)c3)C2(Cl)Cl)cc1C(=O)Nc1ccc(F)cc1` (relative stereo) [F1189, trans-3-Chloro-5-(2,2-dichloro-3-(3-chloro-4-fluorophenyl)cyclopropane-1-carboxamido)-N-(4-fluorophenyl)-2-methylbenzamide], the pest or weed control at 50 µg/cm2 in assay [1] (setting [7]) and in assay [3] (setting [9]) was 50 to 100% each time. Besides, in assay [2] (setting [8]), the YFM result is on record as “A (80–100)”.

With `COC(C)C(=O)Nc1c(F)ccc(NC(=O)c2cc(NC(=O)[C@H]3[C@H](c4ccc(F)c(C(F)(F)F)c4)C3(Cl)Cl)ccc2Cl)c1F` (stereo partly drawn) [F1712, 2-Chloro-5-((1R,3R)-2,2-dichloro-3-(4-fluoro-3-(trifluoromethyl)phenyl)cyclopropane-1-carboxamido)-N-(2,4-difluoro-3-(2-methoxypropanamido)phenyl)benzamide], the pest or weed control at 50 µg/cm2 in assay [1] (setting [4]) and in assay [3] (setting [6]) was 50 to 100% each time. For the same compound, the YFM result in assay [2] (setting [5]) was “A (80–100)”.

Regarding `Cc1cc(NC(=O)[C@H]2[C@H](c3ccc(F)c(Cl)c3)C2(Cl)Cl)cc(C(=O)NCC(F)(F)F)c1Cl` (relative stereo) [F2038, trans-2-Chloro-5-(2,2-dichloro-3-(3-chloro-4-fluorophenyl)cyclopropane-1-carboxamido)-3-methyl-N-(2,2,2-trifluoroethyl)benzamide], the pest or weed control at 50 µg/cm2 in assay [1] (setting [10]) and in assay [3] (setting [11]) was 50 to 100% each time. Further, the YFM rating result in assay [2] (Yellow Fever Mosquito) is “A (80–100)”.

The record behind these values is patent US20250228239A1, “MOLECULES HAVING PESTICIDAL UTILITY, AND INTERMEDIATES, COMPOSITIONS, AND PROCESSES, RELATED THERETO” (priority 2024, published 2025).
